Three compounds from patent US11123683B2, “Carbon dioxide absorbent and apparatus of separating and recovering carbon dioxide” (Kabushiki Kaisha Toshiba, priority 2017, dated 2021) can be followed below.

The data set is described as follows: pKa of amino group of the heterocyclic ring. The following applies: amino group in heterocyclic ring. It counts as physicochemical.
`CC(=O)CN1CCNCC1` [1-(1-piperazinyl)-2-propanone] returned a pKa of 9.1. To `O=C1CNCC(=O)N1` [2,6-piperazinedione] belongs 4.3; to `CN1CC(CO)NCC1=O` (stereo not drawn) [5-hydroxymethyl-1-methyl-2-piperazinone], 6.6.
